Assay type in all cases: cell-based
In assay [1] the test system is H460 non small lung carcinoma cells. Kind of assay: CellTiter Glo (CTG) cell viability assay, in vitro cell killing, H460. The settings on record: Homo sapiens, 24 h treatment, 0.5% serum and 0.05% DMSO, relative to untreated control; for viability at 50 µM: NCI-H460, 50 μM, read-out: % avg live cells @ 50 μM (% Viable Cells Remaining); for viability at 100 µM: NCI-H460, 100 μM, read-out: % avg live cells @ 100 μM (% Viable Cells Remaining). The source says: (§1) The objective of this investigation was to assess the in vitro cell killing activities of analogs of lipoic acid in BXPC3 human pancreatic, H460 non small lung carcinoma, and SF539 human gliosarcoma cancer cells.
(§2) Three human tumor cell types, BXPC3 human pancreatic cancer, H460 non small lung carcinoma, and SF539 human gliosarcoma, were used in this investigation. The BXPC3 and H460 cells were originally obtained from American Type Cell Culture (ATCC). The SF539 cells were originally obtained from the NCI AIDS and Cancer Specimen Bank (ACSB). All tumor cells were maintained at 37° C. in a humidified 5% CO2 atmosphere in T75 tissue culture flasks containing 20 mL of Roswell Park Memorial Institute (RPMI) 1640 containing 2 mM L-glutamine, 10% FBS and 1% penicillin and streptomycin (100 IU/mL penicillin and 100 μg/mL streptomycin). The tumor cells were split at a ratio of 1:5 every 4-5 days by trypsinization and resuspended in fresh medium in a new flask. Cells were harvested for experiments at 70-90% confluency.
(§3) Stock solutions of each analog were prepared at a concentration of 200 and 100 mM in DMSO. Five μL of this solution was diluted in 10.0 mL of 0.5% serum containing RPMI media to give the desired 100 μM and 50 μM solutions in 0.05% DMSO.
(§4) The cancer cells were seeded at 4000 cells/well for H460 cells and 6000 cells/well for BXPC3 and SF 539 cells and incubated 24 hours. The killing activity of analogs was assayed at 50 μM and 100 μM concentrations. The tumor cells were treated for 24 hours with the test article, and after 24 hours of treatment the number of viable tumor cells was determined using the CTG assay.
(§5) The number of cells targeted for the study is 4×10^3 per well for H460 cells and 6×10^3 per well for BXPC3 and SF539 cells in 100 μL of medium. The actual number of cells were counted and seeded in the wells of a 96 well-plate. The cells were incubated for approximately 24 hours before addition of test article.
(§6) The media in the plate was removed by aspiration, and 100 μL of the test article at a final concentration of 50 μM or 100 μM was added to the cells. After exposure to the test articles for 24 hours, the number of viable cells in each well was determined and the percent of viable cells relative to control (in the absence of test article) were calculated. Additionally, a set of wells was treated with cell culture medium in the absence of cells to obtain a value for background luminescence. A separate set of cells was seeded at the same time in a clear 96-well plate and observed under the microscope at 24 hours, following addition of the test article to estimate the amount of cells present after treatment.
(§7) The number of viable cells was determined by using the CTG assay. Specifically, reagents were mixed and allowed to come to room temperature according to instructions from Promega, Inc. (Madison, Wis.). Cell plates were removed from the cell culture incubator and left on the bench for thirty minutes until they reached room temperature. 100 μL per well of CTG reagent was added with the 12-channel Eppendorf pipettor. The cells were lysed by shaking the plate for two minutes in a shaker. The cells were kept in room temperature for ten minutes to stabilize the luminescent signal. The luminescence was measured using the FLUOstar OPTIMA plate reader (BMG Labtech, Inc., Durham, N.C.).
(§8) Data from luminescence readings was copied onto EXCEL spreadsheets, and cell growth relative to untreated cells was calculated, using the following equation: […]
Background: In ATP-based viability assays light output follows the ATP content of the culture.

Assay [2] has as its system SF539 human gliosarcoma cells. The assay can be described thus: CellTiter Glo (CTG) cell viability assay, in vitro cell killing, SF539. The conditions noted are these: 24 h treatment, 0.5% serum and 0.05% DMSO, relative to untreated control; for viability at 50 µM: SF-539, 50 μM, read-out: % avg live cells @ 50 μM (% Viable Cells Remaining); for viability at 100 µM: SF-539, 100 μM, read-out: % avg live cells @ 100 μM (% Viable Cells Remaining).
Description: as §1, §2, §3, §4, §5, §6, §7, §8

For assay [3], the system named is BXPC3 human pancreatic cancer cells. Kind of assay: CellTiter Glo (CTG) cell viability assay, in vitro cell killing, BXPC3. The conditions noted are these: 24 h treatment, 0.5% serum and 0.05% DMSO, relative to untreated control; for viability at 50 µM: BXPC-3, 50 μM, read-out: % avg live cells @ 50 μM (% Viable Cells Remaining); for viability at 100 µM: BXPC-3, 100 μM, read-out: % avg live cells @ 100 μM (% Viable Cells Remaining).
Description: as §1, §2, §3, §4, §5, §6, §7, §8

SMILES strings stand for the structures.

The record followed here is patent US10526357B2, “Pharmaceutical compounds” (Rafael Pharmaceuticals, Inc., priority 2014, dated 2020).

`O=C(O)CCOCC(CCSCc1ccccc1)SCc1ccccc1` (stereo not drawn) [G]: the values for the viability at 50 µM in assay [1], in assay [2] and in assay [3] were 102%, 91.6% and 99.7%, respectively. Also, the viability at 100 µM in assay [1] stood at 37.6%; in assay [2], 30.3%; in assay [3] it was 41.7%.

In the case of `O=S(=O)(O)CCCCC(CCSCc1ccccc1)SCc1ccccc1` (stereo not drawn) [E], the viability at 50 µM in assay [1], in assay [2] and in assay [3] was 0% throughout. The viability at 100 µM came out at 0.3% in assay [1], 0% in assay [2] and 0% in assay [3].

In the case of `c1ccc(CSCCC(CCCCc2nn[nH]n2)SCc2ccccc2)cc1` (stereo not drawn) [D], the viability at 50 µM in assay [1] was determined as 4.1%; in assay [2] it was 2.1%; in assay [3], 0.3%. In addition, the viability at 100 µM in assay [1] was determined as 2.7%; in assay [2], 0.1%; in assay [3], 3.9%.

Take `CCCCCCC(CCSCc1ccccc1)SCc1ccccc1` (stereo not drawn) [A]: the viability at 50 µM is 89% in assay [1], 100% in assay [2] and 84% in assay [3]. Also, the viability at 100 µM in assay [1] amounted to 70%; in assay [2] it was 98%; in assay [3] it was 75%.

With `N#CCCCCC(CCSCc1ccccc1)SCc1ccccc1` (stereo not drawn) [C], the viability at 50 µM is 69.8% in assay [1], 74.9% in assay [2] and 70.9% in assay [3]. In addition, the viability at 100 µM in assay [1] was 27.1%; in assay [2] it was 23.2%; in assay [3] it was 36.1%.

Regarding `COCCCCCC(CCSCc1ccccc1)SCc1ccccc1` (stereo not drawn) [B], the figures for the viability at 50 µM in assay [1], in assay [2] and in assay [3] were 97%, 99% and 84%, respectively. For the same molecule, the viability at 100 µM in assay [1] came to 67%; in assay [2], 99%; in assay [3], 91%.
